The values that follow come from US12344610B2, “APOL1 inhibitors and methods of use” (Maze Therapeutics, Inc., priority 2022, dated 2025).

Format in all cases: cell-based
The test system of test [1] is HEK293 clonal cell line overexpressing APOL1 G1. Description: APOL1 G1 HEK293 cell rescue assay (Example B3). As to conditions: Homo sapiens, HEK293, HEK293 clonal line overexpressing APOL1 G1; geometric mean of at least 2 runs; † = single run; ¥ = concentration at 50% rescue estimated (no sigmoidal curve). An outline of the steps:
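Rescue of cell death caused by APOL1 G1 overexpression was measured in a clonal HEK293 line. Compounds were tested in duplicate on one plate, and EC50s were geometric means across at least two runs on different days. Some values are estimated 50%-rescue concentrations where curve fitting failed.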

The test system of test [2] is Trypanosoma brucei Lister 427 VSG221 with APOL1 G0 recombinant protein. Kind of test: APOL1 G0 trypanosome cell rescue assay (Example B5). As to conditions: Trypanosoma brucei, 20 h, read-out: APOL1 G0 Trypanosome Rescue EC50, Trypanosoma brucei Lister 427 VSG221 with APOL1 G0 recombinant protein, 20 hours, CellTiter-Glo; geometric mean of at least 2 assay runs; † = single assay run. An outline of the steps: (§1)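 Viability read by CellTiter-Glo luminescence after 20 h co-incubation (37° C, 5% CO2) of 250 trypanosomes/well in modified HMI-9 with test compound (duplicate 11-point, 2-fold dilutions, 0.4% DMSO) and APOL1 protein, […]. Protein: mature residues 28-398, E. coli inclusion-body refolded, tag cleaved, in DDM.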

Test [3] deals with Trypanosoma brucei Lister 427 VSG221 with APOL1 G2 recombinant protein. Kind of test: APOL1 G2 trypanosome cell rescue assay (Example B5). As to conditions: Trypanosoma brucei, 20 h, read-out: APOL1 G2 Trypanosome Rescue EC50, Trypanosoma brucei Lister 427 VSG221 with APOL1 G2 recombinant protein, 20 hours, CellTiter-Glo; geometric mean of at least 2 assay runs; † = single assay run. An outline of the steps: as §1

As to `CNC(=O)C1(c2ccc(OCCN3CCC4(CC3)C(=O)Nc3ccc(C#N)cc34)cc2)COC1` [Compound 255, 3-[4-(2-{5-cyano-2-oxo-1,2-dihydrospiro[indole-3,4′-piperidin]-1′-yl}ethoxy)phenyl]-N-methyloxetane-3-carboxamide], the EC50 in test [1] was about 2900 nM; in test [2], 1380 nM; in test [3], 575 nM.
Turning to `O=C(c1c(F)cc(OCCN2CCC3(CC2)C(=O)Nc2ccc(Cl)cc23)cc1F)N1CCS(=O)(=O)CC1` [Compound 259, 4-[4-(2-{5-chloro-2-oxo-1,2-dihydrospiro[indole-3,4′-piperidin]-1′-yl}ethoxy)-2,6-difluorobenzoyl]-1λ^6-thiomorpholine-1,1-dione], the half-maximal effective concentration (EC50) in test [1] is 92.5 nM; in test [2], 68 nM; in test [3] it was 25.5 nM.
For `CN1C(=O)C2(CCN(CCOc3cc(F)c(C(=O)N4CCS(=O)(=O)CC4)c(F)c3)CC2)c2cc(C#N)ccc21` [Compound 260, 1′-{2-[4-(1,1-dioxo-1λ^6-thiomorpholine-4-carbonyl)-3,5-difluorophenoxy]ethyl}-1-methyl-2-oxo-1,2-dihydrospiro[indole-3,4′-piperidine]-5-carbonitrile], in that order: 248 nM, 274 nM and 110 nM.
With `CN1C(=O)C2(CCN(CCOc3ccc(C(=O)N4CCS(=O)(=O)CC4)c(C(F)(F)F)c3)CC2)c2cc(C#N)ccc21` [Compound 261, 1′-{2-[4-(1,1-dioxo-1λ^6-thiomorpholine-4-carbonyl)-3-(trifluoromethyl)phenoxy]ethyl}-1-methyl-2-oxo-1,2-dihydrospiro[indole-3,4′-piperidine]-5-carbonitrile], the EC50 in test [1] was 167 nM; in test [2], 84 nM; in test [3] it was 29.6 nM.
As to `CS(=O)(=O)c1ccc(OCCN2CCC3(CC2)C(=O)N(CCO)c2ccc(Cl)cc23)cc1C(F)F` [Compound 265, 5-chloro-1′-{2-[3-(difluoromethyl)-4-methanesulfonylphenoxy]ethyl}-1-(2-hydroxyethyl)-1,2-dihydrospiro[indole-3,4′-piperidin]-2-one], the EC50 was 132 nM in test [1], 67.6 nM in test [2] and 23.1 nM in test [3].
For the compound `CS(=O)(=O)c1ccc(OCCN2CCC3(CC2)C(=O)N(CCO)c2ccc(C#N)cc23)cc1C(F)F` [Compound 266, 1′-{2-[3-(difluoromethyl)-4-methanesulfonylphenoxy]ethyl}-1-(2-hydroxyethyl)-2-oxo-1,2-dihydrospiro[indole-3,4′-piperidine]-5-carbonitrile], the results for the EC50 in test [1], in test [2] and in test [3] were 353 nM, 236 nM and 77.1 nM, respectively.
On to `O=C(c1ccc(OCCN2CCC3(CC2)C(=O)Nc2ccc(Cl)cc23)cc1C(F)(F)F)N1CCS(=O)(=O)CC1` [Compound 272, 4-[4-(2-{5-chloro-2-oxo-1,2-dihydrospiro[indole-3,4′-piperidin]-1′-yl}ethoxy)-2-(trifluoromethyl)benzoyl]-1λ^6-thiomorpholine-1,1-dione], for which the EC50 was 148 nM in test [1], 58.9 nM in test [2] and 18.9 nM in test [3].
With `CS(=O)(=O)N1CC2(CN(C(=O)c3ccc(OCCN4CCC5(CC4)C(=O)Nc4ccc(Cl)cc45)cc3F)C2)C1` [Compound 273, 5-chloro-1′-[2-(3-fluoro-4-{6-methanesulfonyl-2,6-diazaspiro[3.3]heptane-2-carbonyl}phenoxy)ethyl]-1,2-dihydrospiro[indole-3,4′-piperidin]-2-one], the results for the EC50 in test [1], in test [2] and in test [3] were 206 nM, 64.9 nM and 25.8 nM, respectively.
`C[C@]1(O)C[C@@H](N2C(=O)CCc3cc(OCCN4CCC5(CC4)C(=O)Nc4ccc(C(F)F)cc45)cnc32)C1` [Compound 274, 5-(difluoromethyl)-1′-[2-({7-oxo-8-[(cis)-3-hydroxy-3-methylcyclobutyl]-5,6,7,8-tetrahydro-1,8-naphthyridin-3-yl}oxy)ethyl]-1,2-dihydrospiro[indole-3,4′-piperidin]-2-one]: the results for the concentration giving a half-maximal response (EC50) in test [1], in test [2] and in test [3] were 99.9 nM, 59.3 nM and 17.2 nM, respectively.
Take `C[C@]1(O)C[C@@H](N2C(=O)CCc3cc(OCCN4CCC5(CC4)C(=O)Nc4ccc(Cl)cc45)cnc32)C1` [Compound 275, 5-chloro-1′-[2-({7-oxo-8-[(cis)-3-hydroxy-3-methylcyclobutyl]-5,6,7,8-tetrahydro-1,8-naphthyridin-3-yl}oxy)ethyl]-1,2-dihydrospiro[indole-3,4′-piperidin]-2-one]: the figures for the EC50 in test [1], in test [2] and in test [3] were 62.7 nM, 61.2 nM and 21.4 nM, respectively.
For `CS(=O)(=O)C1(c2ncc(OCCN3CCC4(CC3)C(=O)Nc3ccc(Cl)cc34)cn2)COC1` [Compound 276, 5-chloro-1′-(2-{[2-(3-methanesulfonyloxetan-3-yl)pyrimidin-5-yl]oxy}ethyl)-1,2-dihydrospiro[indole-3,4′-piperidin]-2-one], in that order: 228 nM, 178 nM and 55 nM.
With `CS(=O)(=O)C1(c2ncc(OCCN3CCC4(CC3)C(=O)Nc3ccc(C#N)cc34)cc2F)CC1` [Compound 283, 1′-(2-{[5-fluoro-6-(1-methanesulfonylcyclopropyl)pyridin-3-yl]oxy}ethyl)-2-oxo-1,2-dihydrospiro[indole-3,4′-piperidine]-5-carbonitrile], the EC50 is 211 nM in test [1], 216 nM in test [2] and 71.1 nM in test [3].
On the same counts, the results for `CC(O)c1ncc(OCCN2CCC3(CC2)C(=O)Nc2ccc(Cl)cc23)cn1` (stereo not drawn) [Compound 284, 5-chloro-1′-(2-{[2-(1-hydroxyethyl)pyrimidin-5-yl]oxy}ethyl)-1,2-dihydrospiro[indole-3,4′-piperidin]-2-one] are 775 nM, 808 nM and 235 nM.
As for `C[C@]1(O)C[C@@H](N2C(=O)OCc3cc(OCCN4CCC5(CC4)C(=O)Nc4ccc(Cl)cc45)cnc32)C1` [Compound 289, 5-chloro-1′-[2-({2-oxo-1-[(cis)-3-hydroxy-3-methylcyclobutyl]-1H,2H,4H-pyrido[2,3-d][1,3]oxazin-6-yl]oxy)ethyl]-1,2-dihydrospiro[indole-3,4′-piperidin]-2-one], the results for the EC50 in test [1], in test [2] and in test [3] were 50.6 nM, 38.2 nM and 15.7 nM, respectively.
Turning to `CC1(O)CN(c2ncc(OCCN3CCC4(CC3)C(=O)Nc3ccc(Cl)cc34)cn2)C1` [Compound 300, 5-chloro-1′-(2-{[2-(3-hydroxy-3-methylazetidin-1-yl)pyrimidin-5-yl]oxy}ethyl)-1,2-dihydrospiro[indole-3,4′-piperidin]-2-one], the EC50 was 183 nM in test [1], 375 nM in test [2] and 160 nM in test [3].
For the compound `O=C1Nc2ccc(Cl)cc2C12CCN(CCOc1cnc(N3CC(O)C3)nc1)CC2` [Compound 301, 5-chloro-1′-(2-{[2-(3-hydroxyazetidin-1-yl)pyrimidin-5-yl]oxy}ethyl)-1,2-dihydrospiro[indole-3,4′-piperidin]-2-one], the EC50 in test [1] is 190 nM; in test [2], 327 nM; in test [3], 134 nM.
